Measured values as given in patent US4337339A, “Process for preparation of folic acid derivatives” (Baker Instruments Corp., priority 1979, dated 1982).
One block for each compound: values may come before it.

Legend:
[1] = tested on: carboxypeptidase A; test: enzymatic hydrolysis of pteroyltyrosine followed by UV spectrophotometry; assay type: biochemical; conditions: two hours, ambient temperature, Tris-HCl with zinc chloride pH 7.3
Method: Two millilters of a solution of pteroyltrosine ([…]) in 0.025 M Tris-HCl containing 2 mM zinc chloride, pH 7.3 were diluted to 10 ml with distilled water. A portion of this solution (2 ml) was placed in a 1 cm cuvette and in another was placed 2 ml of distilled water. To each of the cuvettes was added 50 μl of a solution of 100 μl carboxypeptidase A suspension (Aldrich chemical, lot (060637) diluted with 0.9 ml of 10% lithium chloride.
The time course of the reaction was followed spectrophotometrically (uv) over a period of two hours at ambient temperature. An increase and shift in max from 280 to 277 nm and a marked decrease in absorption at 220 nm was observed. Two isobestic points at 242 and 282 nm were visible.

[2] = target: whole milk folate binder (Bos taurus, UniProt P02702); test: competitive protein binding (CPB) radioassay for folates using pteroyltyrosine [125I] as radiolabel; conditions: for behaviour in the folate competitive protein binding assay of radiolabel made from directly coupled p-aminobenzoyltyrosine product, compared with label from the hydrolyzed ester: pteroyltyrosine from 6-formylpterin + H-PABA-L-Tyr-OH (Example 1f(2)), radioiodinated, gel chromatography; for dose response curves generated using pteroyltyrosine [125I] as label, folic acid versus N5-methyl THF: at high pH compared with lower pH
Method: The use of the Centria® analytical system, Union Carbide Corporation, in this example, is meant to be illustrative and other methods, both automated and manual, obvious to those skilled in the clinical diagnostic art are also within the scope of this invention.
Briefly, the Centria® system is a tri-modular instrument in which reagents are pipetted on to a multiwell transfer disk and mixed centrifugally with standards or patients' samples. After a suitable incubation period, the components are separated by a centrifugal elution of the bound and free fractions and the bound fractions counted three at a time.
Folic acid and N^5 -methyltetrahydrofolic acid standards in the range 0-20 nanograms/milliliter were prepared in 0.05 M sodium borate, pH 9.3 containing 0.1% human serum albumin. The whole milk binder was prepared according to the method of Rothenberg et al., (3) and dissolved in sodium borate, pH 9.3 containing 0.1% human serum albumin.
(50 microliters, 20,000 cpm) plus 85 microliters of water with the limited number of binding sites contained in a 200 microliter solution of whole milk folate binder. The binding reactions may be shown as follows:
After a 10 minute incubation, the reaction mixture was centrifugally transferred onto DEAE Sephadex A-25 columns (0.75×4 in.) where separation of complexed folate from free folate was effected with 1.4 ml of elution buffer
(3) S. Rothenberg, M. DaCosta, and Z. Rosenberg, New Eng.
A gamma counter which counts three of the 36 positions at a time for one minute, so constructed that only the eluate bottom portion of the test tubes fits into the counter, was then used to count all samples. Sequential counting of the tubes thus required about 12 minutes. A small computer with printout capability then printed out the data after completion of the cycle.

[3] = storage stability of the radioiodinated product, judged by assay performance; assay type: physicochemical; conditions: ten-week period, stored in 50% aqueous propylene glycol solution
Excerpt: Radioiodination of biological compounds frequently leads to marked chemical instability and subsequent degradation of the radiolabel. This problem is often accentuated in the radiolabel when the materials to be radioiodinated are known to be sensitive to oxygen, light or extremes in pH, as is the case with folic acid and some derivatives.
The reaction mixture was applied to a 1×20 cm Sephadex G25, fine, (Pharmacia Fine Chemicals, Uppsala, Sweden) column hydrated with distilled water and equilibrated with 0.1 M potassium phosphate, pH 7.5. The column was eluted with 0.1 M potassium phosphate buffer and 3 ml fractions collected. The product "peak" fractions 32-34 were collected, diluted 1:1 with propylene glycol and stored below 0° C.

Sequence of whole milk folate binder (P02702 20-234): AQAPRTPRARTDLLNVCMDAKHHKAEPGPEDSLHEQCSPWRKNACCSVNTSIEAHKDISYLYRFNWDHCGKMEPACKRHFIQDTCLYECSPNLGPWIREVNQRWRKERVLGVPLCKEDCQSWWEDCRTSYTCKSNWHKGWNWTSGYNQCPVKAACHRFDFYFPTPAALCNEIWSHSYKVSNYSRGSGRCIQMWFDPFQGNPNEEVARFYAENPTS

behaviour in the folate competitive protein binding assay of radiolabel made from directly coupled p-aminobenzoyltyrosine product, compared with label from the hydrolyzed ester [2]: functioned identically
behaviour in the folate competitive protein binding assay of radiolabel made from directly coupled p-aminobenzoyltyrosine product, compared with label from the hydrolyzed ester ([2]; listed as Pt-L-Tyr-OH): identically
Structure (SMILES): Nc1nc2ncc(CNc3ccc(C(=O)N[C@@H](Cc4ccc(O)cc4)C(=O)O)cc3)nc2c(=O)[nH]1 [pteroyltyrosine, Pteroyl-L-Tyrosine]
UV spectral change on treatment with carboxypeptidase A (hydrolysis) [1]: final spectrum was very similar to that of pteroic acid

Structure (SMILES): Nc1nc2ncc(CNc3ccc(C(=O)N[C@@H](CCC(=O)O)C(=O)O)cc3)nc2c(=O)[nH]1 [folic acid]
dose response curves generated using pteroyltyrosine [125I] as label, folic acid versus N5-methyl THF [2]: more nearly coincident than at lower pH

performance as radiolabel in CPB radioassay for folic acid ([2]; folic acid concentration range 0-20 ng/ml): effective radiolabel
stability of radioiodinated product (assay performance on storage) [3]: no deterioration in assay performance
Structure (SMILES): Nc1nc(O)c2nc(CNc3ccc(C(=O)N[C@@H](Cc4ccc(O)c([125I])c4)C(=O)O)cc3)cnc2n1 [pteroyltyrosine [^125 I]]

Structure (SMILES): CN1c2c(O)nc(N)nc2NCC1CNc1ccc(C(=O)N[C@@H](CCC(=O)O)C(=O)O)cc1 (stereo partly shown) [N^5 -methyl THF, N-5-methyltetrahydrofolic acid, reference compound]
dose response curves generated using pteroyltyrosine [125I] as label, folic acid versus N5-methyl THF [2]: more nearly coincident than at lower pH
